Measurements taken from ChEMBL document CHEMBL1201862, “PubChem BioAssay data set” (2004).
Calls of active or inactive are those of the source.

Tests used:
[1] = target: Potassium voltage-gated channel subfamily KQT member 2 (Rattus norvegicus, UniProt O88943); experiment: KCNQ2 potassium channel inhibitors, dose response, cell-based, automated electrophysiology, set II, rat KCNQ2 (AID 588637); format: functional
[2] = target: T1, Eukaryotic translation initiation factor 2-alpha kinase 3 (Homo sapiens, UniProt Q9NZJ5); experiment: Counterscreen assay for PERK inhibitors: Dose response cell-based high throughput screening assay to measure inhibition of PERK at 6 hours. [Related pubchem assays: 1522, 1416 ]; format: functional
T1 sequence (Q9NZJ5 whole entry): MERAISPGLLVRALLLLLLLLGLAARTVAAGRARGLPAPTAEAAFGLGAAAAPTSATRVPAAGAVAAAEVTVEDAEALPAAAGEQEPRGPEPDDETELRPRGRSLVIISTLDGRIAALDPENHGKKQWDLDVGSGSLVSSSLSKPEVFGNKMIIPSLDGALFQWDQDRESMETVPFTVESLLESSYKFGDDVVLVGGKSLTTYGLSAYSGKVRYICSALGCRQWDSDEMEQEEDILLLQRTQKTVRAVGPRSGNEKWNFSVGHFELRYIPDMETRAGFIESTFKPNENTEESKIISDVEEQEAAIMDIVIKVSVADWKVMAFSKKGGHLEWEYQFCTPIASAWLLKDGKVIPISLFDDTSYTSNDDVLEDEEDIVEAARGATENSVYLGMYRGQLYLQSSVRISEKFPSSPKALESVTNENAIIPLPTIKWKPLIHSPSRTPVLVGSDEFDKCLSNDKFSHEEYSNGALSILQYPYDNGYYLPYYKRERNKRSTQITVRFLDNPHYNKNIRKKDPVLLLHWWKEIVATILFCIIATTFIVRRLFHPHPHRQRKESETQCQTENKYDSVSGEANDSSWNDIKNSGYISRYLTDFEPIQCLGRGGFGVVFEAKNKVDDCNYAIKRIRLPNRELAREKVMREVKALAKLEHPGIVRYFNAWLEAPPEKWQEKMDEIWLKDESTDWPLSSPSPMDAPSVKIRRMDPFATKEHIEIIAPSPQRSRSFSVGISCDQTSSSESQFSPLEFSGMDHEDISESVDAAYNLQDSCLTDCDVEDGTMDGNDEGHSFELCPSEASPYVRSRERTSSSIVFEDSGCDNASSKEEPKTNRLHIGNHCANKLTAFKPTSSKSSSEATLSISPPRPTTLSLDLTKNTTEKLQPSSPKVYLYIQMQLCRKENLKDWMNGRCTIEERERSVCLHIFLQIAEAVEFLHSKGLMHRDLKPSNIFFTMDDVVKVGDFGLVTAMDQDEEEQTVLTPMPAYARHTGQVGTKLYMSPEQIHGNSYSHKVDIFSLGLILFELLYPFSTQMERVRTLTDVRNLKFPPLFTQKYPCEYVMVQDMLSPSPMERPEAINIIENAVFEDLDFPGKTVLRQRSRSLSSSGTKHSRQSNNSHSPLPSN

[3] = target: T2, Apoptotic protease-activating factor 1 (Homo sapiens, UniProt O14727); experiment: SAR analysis of small molecule Activators of Apaf-1 in a Fluorescent assay.; format: functional; settings: read-out: EC50_Mean;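 also: caspase-3 cleavage of fluorogenic Rh110 DEVD substrate downstream of apoptosome activation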
T2 sequence (O14727 whole entry): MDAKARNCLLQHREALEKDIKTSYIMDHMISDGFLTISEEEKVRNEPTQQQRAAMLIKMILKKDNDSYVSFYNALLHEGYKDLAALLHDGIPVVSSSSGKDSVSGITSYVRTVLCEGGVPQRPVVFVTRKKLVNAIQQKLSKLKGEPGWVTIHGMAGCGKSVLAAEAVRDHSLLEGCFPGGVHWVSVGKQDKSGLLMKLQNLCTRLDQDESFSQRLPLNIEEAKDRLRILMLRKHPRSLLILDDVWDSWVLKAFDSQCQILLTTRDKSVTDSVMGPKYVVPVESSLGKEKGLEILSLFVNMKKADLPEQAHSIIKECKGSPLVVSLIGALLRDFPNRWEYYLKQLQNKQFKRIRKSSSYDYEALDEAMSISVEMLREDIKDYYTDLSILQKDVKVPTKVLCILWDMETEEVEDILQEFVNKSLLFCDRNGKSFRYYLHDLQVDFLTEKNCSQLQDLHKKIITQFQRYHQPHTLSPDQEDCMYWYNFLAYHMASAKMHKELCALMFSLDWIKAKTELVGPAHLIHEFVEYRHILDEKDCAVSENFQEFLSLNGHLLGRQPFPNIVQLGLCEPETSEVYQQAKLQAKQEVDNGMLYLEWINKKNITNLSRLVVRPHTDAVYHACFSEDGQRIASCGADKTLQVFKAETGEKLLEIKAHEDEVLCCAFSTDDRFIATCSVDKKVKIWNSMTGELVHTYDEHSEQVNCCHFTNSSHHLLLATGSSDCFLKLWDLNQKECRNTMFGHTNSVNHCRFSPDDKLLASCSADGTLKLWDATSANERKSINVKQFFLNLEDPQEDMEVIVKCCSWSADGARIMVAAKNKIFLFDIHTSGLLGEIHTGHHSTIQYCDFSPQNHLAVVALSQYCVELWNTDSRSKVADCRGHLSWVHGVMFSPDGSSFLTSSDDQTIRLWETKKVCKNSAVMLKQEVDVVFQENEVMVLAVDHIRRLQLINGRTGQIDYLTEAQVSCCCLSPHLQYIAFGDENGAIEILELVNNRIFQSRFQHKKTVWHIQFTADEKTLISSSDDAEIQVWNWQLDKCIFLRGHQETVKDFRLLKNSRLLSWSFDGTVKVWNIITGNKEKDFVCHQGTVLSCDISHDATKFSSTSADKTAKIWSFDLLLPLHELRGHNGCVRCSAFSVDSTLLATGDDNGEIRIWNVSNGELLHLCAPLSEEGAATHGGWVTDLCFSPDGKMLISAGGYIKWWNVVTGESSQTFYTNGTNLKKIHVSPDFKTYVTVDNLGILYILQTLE

[4] = target: T1, Eukaryotic translation initiation factor 2-alpha kinase 3; experiment: Dose response cell-based high-throughput screening assay to measure PERK inhibition. [Related pubchem assays: 1416 ]; format: functional
[5] = NIH-3T3 fibroblast cytotoxicity, dose response, cytotoxicity control, cell-based, fluorescence, Alamar Blue, secondary assay (AID 2327); format: functional;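 also: NIH-3T3 mouse fibroblasts cultured with fluconazole at 8 µg/mL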
[6] = NIH-3T3 fibroblast cytotoxicity, dose response, cytotoxicity control for antifungal single agent project, cell-based, Alamar Blue, dry powder (AID 602188); format: functional
[7] = inhibitors of intracellular T. cruzi replication, confirmation, NIH3T3 host cells, beta-gal luminescence (AID 2044); format: functional, cell-based;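 also: intracellular parasites grown in NIH/3T3 mouse fibroblasts as host cells; luminescent beta-galactosidase reporter signal from transgenic T. cruzi replicating inside host cells; inhibitors lower the luminescence signal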
HEK293 = experiment: inhibitors of LMP1-driven NF-kB reporter, dose response, cell-based, HEK293, luciferase, cherry-pick (AID 588343); format: functional; settings: Homo sapiens
Streptococcus = experiment: Group A Streptococcus viability loss, dose response, counter-screen for streptokinase expression inhibitor project, luminescence, BacTiterGlo (AID 1915); format: functional, organism-based;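 also: potency for reduction of bacterial viability or growth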
[8] = cytotoxicity toward NIH3T3 fibroblasts, dose response, counter-screen, cell-based, ATP luminescence, mouse fibroblasts (AID 2010); format: functional;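 also: cells exposed to compound for about 90 hours before reading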
[9] = target: ATP-dependent molecular chaperone HSP82 (Candida albicans (strain WO-1) (Yeast), UniProt C4YTQ8); experiment: loss of DOC-induced GRE-beta-galactosidase reporter signal, dose response, Hsp90 inhibitor project, S. cerevisiae, luminescence (AID 2400); format: functional, cell-based;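 also: beta-galactosidase luminescence from glucocorticoid response element reporter as proxy for Hsp90 function; inhibitor potency where signal loss means Hsp90 inhibition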
[10] = system: Streptococcus sp. 'group A'; experiment: growth inhibition of control SK(-) GAS strain, dose response, counter-screen for streptokinase expression inhibitor project, luminescence, kanamycin, BacTiterGlo, confirmation (AID 1900); format: functional, organism-based
[11] = C. albicans growth with fluconazole, confirmation, fluorescence, retest (AID 2467); format: functional, cell-based
[12] = target: T3, Serine/threonine-protein phosphatase (Candida dubliniensis (strain CD36 / CBS 7987 / NCPF 3949 / NRRLY-17841) (Yeast), UniProt B9W6M3); experiment: calcineurin pathway inhibitors in yeast reporter, dose response, S. cerevisiae, CDRE-lacZ, luminescence, secondary (AID 2388); format: functional, cell-based;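 also: yeast reporter cells carrying a calcineurin-responsive lacZ construct stimulated with calcium chloride; luminescent beta-galactosidase reporter signal in whole cells rather than isolated phosphatase activity; potency for inhibition where a drop in reporter signal means calcineurin blockade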
T3 sequence (B9W6M3 whole entry): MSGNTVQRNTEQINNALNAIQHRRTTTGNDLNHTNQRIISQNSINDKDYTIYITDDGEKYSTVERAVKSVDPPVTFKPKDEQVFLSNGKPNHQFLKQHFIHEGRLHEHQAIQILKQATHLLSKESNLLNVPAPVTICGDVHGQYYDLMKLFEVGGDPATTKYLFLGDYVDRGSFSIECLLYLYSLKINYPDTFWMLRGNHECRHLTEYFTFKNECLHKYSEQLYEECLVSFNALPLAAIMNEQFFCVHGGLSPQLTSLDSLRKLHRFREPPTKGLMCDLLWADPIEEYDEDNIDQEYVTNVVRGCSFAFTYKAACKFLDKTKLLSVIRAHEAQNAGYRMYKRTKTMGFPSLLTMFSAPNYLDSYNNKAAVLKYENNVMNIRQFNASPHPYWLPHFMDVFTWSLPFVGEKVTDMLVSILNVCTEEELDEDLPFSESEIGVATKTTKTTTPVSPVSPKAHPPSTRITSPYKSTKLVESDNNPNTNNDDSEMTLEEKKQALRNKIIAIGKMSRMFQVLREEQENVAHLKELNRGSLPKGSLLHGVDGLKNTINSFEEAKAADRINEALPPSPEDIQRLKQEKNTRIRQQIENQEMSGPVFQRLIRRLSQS

[13] = target: T4, Carboxy-terminal domain RNA polymerase II polypeptide A small phosphatase 1 (Homo sapiens, UniProt Q9GZU7); experiment: inhibitors of CTDSP1, concentration-response testing, biochemical assay, absorbance-based, actives from ultra-high-throughput screening (AID 540297); format: functional
T4 sequence (Q9GZU7 whole entry): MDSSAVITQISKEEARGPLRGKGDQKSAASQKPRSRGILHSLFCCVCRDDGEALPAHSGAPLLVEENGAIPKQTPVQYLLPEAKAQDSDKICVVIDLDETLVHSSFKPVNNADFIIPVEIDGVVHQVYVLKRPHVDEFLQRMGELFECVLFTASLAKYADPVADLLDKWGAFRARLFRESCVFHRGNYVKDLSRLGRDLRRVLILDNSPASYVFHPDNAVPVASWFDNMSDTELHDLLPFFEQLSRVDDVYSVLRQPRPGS

[14] = target: Tyrosine-protein phosphatase non-receptor type 11 (Homo sapiens, UniProt Q06124); experiment: SHP2 phosphatase inhibition, dose response, selectivity assay for STEP inhibitor project, biochemical (AID 602367); format: functional; settings: read-out: IC50_Mean
[15] = target: Dual specificity protein phosphatase 3 (Homo sapiens, UniProt P51452); experiment: VHR phosphatase inhibition, dose response, selectivity assay for STEP inhibitor project, biochemical (AID 602374); format: functional; settings: read-out: IC50_Mean
[16] = target: Tyrosine-protein phosphatase non-receptor type 5 (Homo sapiens, UniProt P54829); experiment: STEP phosphatase inhibitors, confirmation, biochemical, fluorescence intensity, uHTS hits (AID 602372); format: functional; settings: read-out: IC50_Mean
[17] = growth suppression of PTEN-null colon cells, dose response, cell-based, HCT116 PTEN knockout (AID 1047); format: functional;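 also: HCT116 colon tumor cells with PTEN knocked out; cells exposed to compound for 60 hours before readout; potency for loss of cell viability measured by luminescence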
[18] = growth suppression of beta-catenin-knockout colon cells, dose response, cell-based, HCT116, human colon tumor (AID 1045); format: functional;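 also: HCT116 colon tumor cells with beta catenin knocked out; cells exposed to compound for 60 hours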
[19] = target: DNA damage-inducible transcript 3 protein (Mus musculus, UniProt P35639); format: functional, Cricetulus griseus
SUMO-activating enzyme [20] = target: T5, SUMO-activating enzyme (Homo sapiens, UniProt Q9UBT2); experiment: inhibitors of in vitro SUMOylation cascade, primary screen, biochemical, HTRF, uHTS (AID 2006); format: protein-complex assay
[21] = target: Induced myeloid leukemia cell differentiation protein Mcl-1 (Homo sapiens, UniProt Q07820); format: functional
Melanocortin receptor 4 = Melanocortin receptor 4 (Homo sapiens, UniProt P32245); format: functional, cell-based;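 also: Cell-based assay with luminescence read-out, confirmatory dose-response testing for agonist activity of biased ligands at MC4R; human U2OS cells with tagged receptor and beta-arrestin; potency of agonists that increase receptor coupling to beta-arrestin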
INS1 = experiment: beta cell apoptosis inhibitors, cytokine rescue, dose response, luminescence, retest (AID 449756); format: functional, cell-based; settings: Rattus norvegicus;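 also: cell death triggered by IL-1 beta plus TNF-alpha plus IFN-gamma mixture; protective hits raise ATP signal compared with cytokine alone wells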
SUMO-activating enzyme [22] = target: T5, SUMO-activating enzyme; experiment: SUMOylation inhibitor hit validation, confirmation, SUMOylation inhibitor project, biochemical, AlphaScreen (AID 2018); format: functional
[23] = AlphaScreen signal interference compounds, dose response, artefact control for ARNT-TACC3 interaction inhibitor project, biochemical, luminescence, cherry-pick (AID 651705); format: functional;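 also: AlphaScreen bead proximity signal that flags compounds interfering with the detection technology; potency reflects signal decrease which marks the compound as an assay artifact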

T5 sequence (Q9UBE0 whole entry): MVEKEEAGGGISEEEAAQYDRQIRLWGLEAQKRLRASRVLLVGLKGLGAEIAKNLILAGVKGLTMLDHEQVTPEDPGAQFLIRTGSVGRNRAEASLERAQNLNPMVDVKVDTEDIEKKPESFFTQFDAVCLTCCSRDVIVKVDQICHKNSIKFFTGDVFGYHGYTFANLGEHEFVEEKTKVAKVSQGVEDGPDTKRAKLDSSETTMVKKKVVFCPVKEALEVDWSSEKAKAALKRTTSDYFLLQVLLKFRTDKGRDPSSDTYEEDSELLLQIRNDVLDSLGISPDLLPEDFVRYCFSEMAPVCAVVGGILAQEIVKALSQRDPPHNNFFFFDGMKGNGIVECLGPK
T5 sequence (Q9UBT2 whole entry): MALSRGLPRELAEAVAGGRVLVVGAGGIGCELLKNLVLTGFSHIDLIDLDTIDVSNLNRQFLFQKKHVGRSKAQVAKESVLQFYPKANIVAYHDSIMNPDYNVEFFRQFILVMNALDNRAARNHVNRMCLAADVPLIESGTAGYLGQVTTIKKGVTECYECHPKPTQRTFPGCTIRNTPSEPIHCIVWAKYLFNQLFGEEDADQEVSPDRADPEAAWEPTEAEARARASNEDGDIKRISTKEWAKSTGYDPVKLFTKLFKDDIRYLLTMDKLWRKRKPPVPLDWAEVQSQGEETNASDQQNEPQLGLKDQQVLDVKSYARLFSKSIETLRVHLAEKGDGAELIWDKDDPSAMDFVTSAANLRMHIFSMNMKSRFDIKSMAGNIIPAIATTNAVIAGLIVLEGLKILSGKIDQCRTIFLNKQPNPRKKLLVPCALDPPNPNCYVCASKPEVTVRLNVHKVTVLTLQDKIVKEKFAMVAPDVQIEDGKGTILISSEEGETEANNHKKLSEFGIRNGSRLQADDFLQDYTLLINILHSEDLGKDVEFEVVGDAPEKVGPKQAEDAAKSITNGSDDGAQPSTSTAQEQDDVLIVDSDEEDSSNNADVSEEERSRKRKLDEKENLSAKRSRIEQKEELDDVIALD
Chain of ATP-dependent molecular chaperone HSP82 (C4YTQ8 whole entry): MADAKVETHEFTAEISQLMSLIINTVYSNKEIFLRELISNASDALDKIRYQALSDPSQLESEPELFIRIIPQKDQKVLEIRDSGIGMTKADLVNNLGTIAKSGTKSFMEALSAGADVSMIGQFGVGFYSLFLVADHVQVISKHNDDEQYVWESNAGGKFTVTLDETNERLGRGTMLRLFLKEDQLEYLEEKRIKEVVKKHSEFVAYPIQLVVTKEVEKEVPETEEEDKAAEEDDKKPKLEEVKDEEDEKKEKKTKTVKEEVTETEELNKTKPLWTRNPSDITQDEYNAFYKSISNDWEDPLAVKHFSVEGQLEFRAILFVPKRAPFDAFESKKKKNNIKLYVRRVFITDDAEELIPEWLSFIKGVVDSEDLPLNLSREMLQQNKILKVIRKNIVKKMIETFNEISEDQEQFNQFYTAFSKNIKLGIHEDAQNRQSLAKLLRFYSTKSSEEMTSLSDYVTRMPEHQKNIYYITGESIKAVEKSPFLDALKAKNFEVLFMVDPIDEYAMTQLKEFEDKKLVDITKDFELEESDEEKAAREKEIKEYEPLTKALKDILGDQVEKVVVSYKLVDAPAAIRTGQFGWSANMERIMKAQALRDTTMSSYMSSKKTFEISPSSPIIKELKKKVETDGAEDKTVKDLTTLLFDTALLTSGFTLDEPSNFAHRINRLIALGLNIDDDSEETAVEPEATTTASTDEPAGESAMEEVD
Chain of DNA damage-inducible transcript 3 protein (P35639 whole entry): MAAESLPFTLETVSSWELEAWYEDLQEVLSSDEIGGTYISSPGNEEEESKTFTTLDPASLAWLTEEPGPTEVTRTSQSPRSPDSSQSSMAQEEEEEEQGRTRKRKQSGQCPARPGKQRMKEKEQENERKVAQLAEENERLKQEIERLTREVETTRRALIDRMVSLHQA
Chain of Dual specificity protein phosphatase 3 (P51452 whole entry): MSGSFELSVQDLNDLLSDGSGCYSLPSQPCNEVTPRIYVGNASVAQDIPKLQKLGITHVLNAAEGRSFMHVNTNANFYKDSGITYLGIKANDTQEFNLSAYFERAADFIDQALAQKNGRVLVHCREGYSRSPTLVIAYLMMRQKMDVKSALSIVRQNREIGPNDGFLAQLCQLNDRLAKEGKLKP
Chain of Induced myeloid leukemia cell differentiation protein Mcl-1 (Q07820 whole entry): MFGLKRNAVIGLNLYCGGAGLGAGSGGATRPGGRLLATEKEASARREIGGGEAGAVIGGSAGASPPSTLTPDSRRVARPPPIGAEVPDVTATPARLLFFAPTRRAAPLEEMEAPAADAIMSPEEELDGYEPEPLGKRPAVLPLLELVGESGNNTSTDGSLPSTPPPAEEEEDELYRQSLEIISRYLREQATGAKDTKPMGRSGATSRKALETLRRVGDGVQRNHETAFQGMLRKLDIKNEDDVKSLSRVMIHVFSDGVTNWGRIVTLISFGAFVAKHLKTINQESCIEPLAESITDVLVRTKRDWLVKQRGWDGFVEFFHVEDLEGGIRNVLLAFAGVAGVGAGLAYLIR
Chain of Melanocortin receptor 4 (P32245 whole entry): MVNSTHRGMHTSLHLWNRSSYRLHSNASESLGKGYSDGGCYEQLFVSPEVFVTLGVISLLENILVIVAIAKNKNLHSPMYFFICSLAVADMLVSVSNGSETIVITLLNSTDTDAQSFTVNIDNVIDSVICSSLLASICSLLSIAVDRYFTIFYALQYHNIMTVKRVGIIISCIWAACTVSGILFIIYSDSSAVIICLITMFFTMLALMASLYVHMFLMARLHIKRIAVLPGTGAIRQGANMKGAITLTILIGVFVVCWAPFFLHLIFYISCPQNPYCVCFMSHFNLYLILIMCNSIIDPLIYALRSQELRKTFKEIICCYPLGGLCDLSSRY
Chain of Tyrosine-protein phosphatase non-receptor type 5 (P54829 whole entry): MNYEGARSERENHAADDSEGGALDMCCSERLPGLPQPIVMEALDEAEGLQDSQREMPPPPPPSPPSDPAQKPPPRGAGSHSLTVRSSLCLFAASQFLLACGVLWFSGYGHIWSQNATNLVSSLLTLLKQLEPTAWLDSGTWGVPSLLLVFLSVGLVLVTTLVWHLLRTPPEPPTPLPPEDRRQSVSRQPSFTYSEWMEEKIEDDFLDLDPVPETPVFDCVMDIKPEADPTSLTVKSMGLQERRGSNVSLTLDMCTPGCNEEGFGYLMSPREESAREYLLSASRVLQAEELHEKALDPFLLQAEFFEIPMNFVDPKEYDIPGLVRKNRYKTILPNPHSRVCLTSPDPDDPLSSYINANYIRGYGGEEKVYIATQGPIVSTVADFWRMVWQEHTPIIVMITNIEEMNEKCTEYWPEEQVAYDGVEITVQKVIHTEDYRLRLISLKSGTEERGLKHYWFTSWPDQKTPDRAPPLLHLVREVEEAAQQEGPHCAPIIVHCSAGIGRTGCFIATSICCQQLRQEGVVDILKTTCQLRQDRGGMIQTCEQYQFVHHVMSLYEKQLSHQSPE
Chain of Potassium voltage-gated channel subfamily KQT member 2 (O88943 whole entry): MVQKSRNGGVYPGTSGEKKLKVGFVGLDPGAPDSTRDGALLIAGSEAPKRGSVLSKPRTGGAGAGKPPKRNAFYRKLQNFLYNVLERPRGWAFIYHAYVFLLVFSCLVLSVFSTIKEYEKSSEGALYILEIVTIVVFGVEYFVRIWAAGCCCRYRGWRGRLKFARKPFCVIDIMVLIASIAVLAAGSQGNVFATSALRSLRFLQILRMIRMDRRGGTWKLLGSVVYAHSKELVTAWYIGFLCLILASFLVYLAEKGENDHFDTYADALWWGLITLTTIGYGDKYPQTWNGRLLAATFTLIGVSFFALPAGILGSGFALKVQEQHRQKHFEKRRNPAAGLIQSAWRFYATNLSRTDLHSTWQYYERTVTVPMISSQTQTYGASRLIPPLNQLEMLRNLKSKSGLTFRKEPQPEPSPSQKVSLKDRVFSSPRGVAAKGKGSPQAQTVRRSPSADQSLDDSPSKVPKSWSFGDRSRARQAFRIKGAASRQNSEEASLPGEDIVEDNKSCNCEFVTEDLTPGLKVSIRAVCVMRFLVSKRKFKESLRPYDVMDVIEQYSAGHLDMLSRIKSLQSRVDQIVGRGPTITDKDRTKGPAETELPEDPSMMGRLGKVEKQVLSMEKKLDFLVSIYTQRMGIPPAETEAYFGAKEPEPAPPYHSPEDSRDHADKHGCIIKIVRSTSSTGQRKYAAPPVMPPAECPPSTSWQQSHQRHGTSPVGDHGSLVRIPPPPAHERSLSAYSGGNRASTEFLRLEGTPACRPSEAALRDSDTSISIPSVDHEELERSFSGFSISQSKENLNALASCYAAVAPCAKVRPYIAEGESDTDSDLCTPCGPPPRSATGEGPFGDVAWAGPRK
Chain of Tyrosine-protein phosphatase non-receptor type 11 (Q06124 whole entry): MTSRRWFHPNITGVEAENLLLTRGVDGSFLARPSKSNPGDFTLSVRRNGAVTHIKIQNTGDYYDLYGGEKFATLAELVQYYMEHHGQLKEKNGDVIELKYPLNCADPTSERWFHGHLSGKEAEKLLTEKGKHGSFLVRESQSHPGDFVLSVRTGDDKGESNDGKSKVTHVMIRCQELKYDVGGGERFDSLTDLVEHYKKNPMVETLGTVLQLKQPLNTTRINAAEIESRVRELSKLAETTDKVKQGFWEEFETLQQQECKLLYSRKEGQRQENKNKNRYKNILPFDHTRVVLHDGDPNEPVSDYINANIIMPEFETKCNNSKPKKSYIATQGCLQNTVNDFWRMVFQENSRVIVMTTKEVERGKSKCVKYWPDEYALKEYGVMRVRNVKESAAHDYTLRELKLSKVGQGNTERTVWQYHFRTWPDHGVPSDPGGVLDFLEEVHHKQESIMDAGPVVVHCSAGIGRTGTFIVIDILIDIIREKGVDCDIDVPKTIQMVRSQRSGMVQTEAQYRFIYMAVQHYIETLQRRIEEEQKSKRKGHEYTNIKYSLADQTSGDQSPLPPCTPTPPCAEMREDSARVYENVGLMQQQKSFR

For `Cc1ccccc1OCCn1cc(C(=O)C(=O)N2CCOCC2)c2ccccc21`, the IC50 [1] was 8.84 µM (active).
With `Cc1csc2c(=O)sc(NC(=O)c3ccc(F)cc3)nc12` the EC50 [2] was > 55.7 µM (not active), the EC50 [3] was > 100 µM (inactive) and the EC50 [4] was > 55.7 µM (not active).
With `COc1ccc(-c2nnc(NC(=O)c3ccc(S(=O)(=O)N4CCCc5ccccc54)cc3)o2)cc1` the EC50 [5] was 32.9 µM (inconclusive), the AC50 [6] was 2.71 µM (active) and the EC50 [7] was 0.795 µM (active). For the same molecule, the AC50 (HEK293) was 3.47 µM (active), the EC50 (Streptococcus) was 0.855 µM (active) and the EC50 [8] was 5.82 µM (active). The EC50 [9] was > 150 µM (inactive), the EC50 [10] was 0.186 µM (active) and the EC50 [11] was 0.326 µM (active). The EC50 [12] was > 180 µM (inactive).
With `CCN(c1ccccc1)S(=O)(=O)c1cc(C(=O)OCC(=O)c2c(N)n(C)c(=O)n(C)c2=O)ccc1C` the IC50 [13] was 3.71 µM (active), the IC50 [14] was 1.13 µM (active) and the IC50 [15] was 2.62 µM (active). For the same molecule, the IC50 [16] was 30.9 µM (inactive).
In the case of `O=C(N=Nc1c(O)n(Cc2ccccc2)c2ccccc12)c1cc2ccccc2cc1O`, the EC50 [17] is reported as 4.96 µM (active), the EC50 [18] is reported as 5.03 µM (active) and the “Absolute IC50 (CHOP)” value [19] is reported as 10 µM. For the same molecule, the IC50 (SUMO-activating enzyme [20]) was 13.8 µM (active), the IC50 [21] was 5.39 µM (active) and the EC50 (Melanocortin receptor 4) was > 89.2 µM (inactive). The AC50 (INS1) was 7.06 µM (active) and the IC50 (SUMO-activating enzyme [22]) was 12.3 µM (active).
With `O=C(O)c1ccccc1-c1ccccc1C(=O)Nc1ccc2c(c1)nc(O)c1ccccc12` the AC50 [23] was 79.9 µM (active).
